The text below walks through data of publication PMC9181982, “Biphenyl Ether Analogs Containing Pomalidomide as Small-Molecule Inhibitors of the Programmed Cell Death-1/Programmed Cell Death-Ligand 1 Interaction” (Molecules, 2022).

One experiment concerns the target T1, PD-1/PD-L1 complex (Homo sapiens, UniProt Q9NZQ7).
T1 construct: purchased Cis-Bio
The experiment can be described thus: HTRF (homogeneous time-resolved fluorescence) PD-1/PD-L1 binding assay (Cis-Bio). Particulars: for inhibition at 0.5 µM: 0.5 µM ligand, read-out: HTRF: Percentage of the Dissociated PD-1/PD-L1 Complex, 0.5 µM Ligand Conc.; for inhibition at 0.5 µM / inhibition at 5 µM: 5 nM hPD-L1, 50 nM hPD-1; for inhibition at 5 µM: 5 µM ligand, read-out: HTRF: Percentage of the Dissociated PD-1/PD-L1 Complex, 5 µM Ligand Conc.; for IC50: six ligand concentrations, two dilution series. Here is the method:
To validate the activity toward PD-L1 of our compounds, we carried out an HTRF (homogeneous time-resolved fluorescence) experiment at two concentrations of the ligand (5 µM and 0.5 µM) (Table 1).
HTRF was carried out using a certified Cis-Bio assay according to the manufacturer’s guidelines. The experiments were carried out at 5 nM of h-L1 and 50 nM of hPD-1 in the final formulation at the 20 µL final volume in the well. To determine the half maximal inhibitory concentrations (IC50) of the tested compounds, the measurements were carried out on two individual dilution series unless stated otherwise. After mixing all the components according to the Cis-Bio protocol, the plate was left for 2 h incubation at room temperature followed by the TR-FRET measurement on a Tecan Spark 20M. […] The collected data was background-subtracted from the negative control, normalized on the positive control, averaged, and fitted with the normalized Hill’s equation to determine the IC50 value using Mathematica 12 (Princeton, NJ, USA).

In experiment [1] the target is T2, PD-L1 in MDA-MB-231 cells (Homo sapiens, UniProt Q9NZQ7).
T2 construct: host or cells: MDA-MB-231
T2 sequence (Q9NZQ7 19-290): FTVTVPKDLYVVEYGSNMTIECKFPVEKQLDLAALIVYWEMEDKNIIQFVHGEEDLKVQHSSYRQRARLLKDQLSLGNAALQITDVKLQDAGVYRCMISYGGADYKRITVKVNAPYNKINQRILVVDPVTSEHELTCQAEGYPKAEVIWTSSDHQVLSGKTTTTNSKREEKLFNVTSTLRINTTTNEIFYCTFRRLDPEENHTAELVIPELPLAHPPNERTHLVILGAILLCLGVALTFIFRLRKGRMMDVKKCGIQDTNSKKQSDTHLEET
The experiment is described as follows: Western blot of PD-L1 expression in MDA-MB-231 cells. Particulars: MDA-MB-231 cells treated for 6 or 24 h. The class given is cell-based. Here is the method:
The cell lysates were prepared with a RIPA buffer (Sigma-Aldrich) containing Protease Inhibitor Cocktail (Sigma-Aldrich, St. Louis, MO, USA) and separated by 12% SDS-PAGE (TGX™ FastCast™ Acrylamide Kit, Bio-Rad, Hercules, CA, USA). The proteins were transferred to a PVDF membrane (Merck Millipore, Burlington, MA, USA) using a Mini Trans-Blot® Cell system (Bio-Rad, Hercules, CA, USA). The membranes were incubated with 4% (m/v) bovine serum albumin (BioShop, Burlington, Ontario, Canada) in a TBS buffer containing 0.1% (v/v) Nonidet P-40 (BioShop, Burlington, Ontario, Canada) at RT for 1 h. Then, the membranes were incubated with a specific primary antibody at 4 °C overnight. Following three washes in TBS-N, a secondary horseradish peroxidase (HRP)-conjugated antibody was applied for 1 h at RT. […]
Figure 2 Bioactivity of the indicated compounds. (A,B) The activity was monitored with a cell-based immune checkpoint blockade (ICB) assay. […] The cells were co-cultured for 6 h and the luminescence signal was measured following the addition of the Bio-Glo substrate. The graphs show fold induction calculated versus either DMSO-treated (for small molecules) or untreated (for durvalumab) control (ctrl) cells. […]

Entries after “also recorded” stand apart in the source; their conditions may differ.

T1 sequence (Q9NZQ7 19-238 limits assumed, one chain of several): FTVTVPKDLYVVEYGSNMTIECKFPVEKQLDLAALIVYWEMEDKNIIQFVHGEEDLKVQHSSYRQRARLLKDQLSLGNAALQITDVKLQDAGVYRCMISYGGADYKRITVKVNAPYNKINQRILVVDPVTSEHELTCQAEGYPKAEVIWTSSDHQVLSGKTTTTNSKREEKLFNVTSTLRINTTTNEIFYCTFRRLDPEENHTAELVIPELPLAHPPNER

Take `COc1nc(OCc2cccc(-c3ccccc3)c2C)ccc1CNCC1CCN(CC(=O)Nc2cccc3c2C(=O)N(C2CCC(=O)NC2=O)C3=O)CC1` (centres unmarked) [compound 4, N-(2-(2,6-dioxopiperidin-3-yl)-1,3-dioxoisoindolin-4-yl)-2-(4-((((2-methoxy-6-((2-methyl-[1,1′-biphenyl]-3-yl)methoxy)pyridin-3-yl)methyl)amino)methyl)piperidin-1-yl)acetamide]: at PD-1/PD-L1 complex, the inhibition at 0.5 µM was determined as 18.2%, the inhibition at 5 µM was found to be 88.8% and the IC50 is 1320 ± 40 nM. Also, the “Downregulation of PD-L1 expression (Western blot)” value in experiment [1] was “not related to the downregulation of PD-L1 expression; also recorded: unrelated to the downregulation of PD-L1 expression”.
`COc1nc(OCc2cccc(-c3ccccc3)c2C)ccc1CNCCCNc1cccc2c1C(=O)N(C1CCC(=O)NC1=O)C2=O` (centres unmarked) [compound 5, 2-(2,6-dioxopiperidin-3-yl)-4-((3-(((2-methoxy-6-((2-methyl-[1,1′-biphenyl]-3-yl)methoxy)pyridin-3-yl)methyl)amino)propyl)amino)isoindoline-1,3-dione]: at PD-1/PD-L1 complex, the inhibition at 0.5 µM was determined as 66.3%, the inhibition at 5 µM is 100% and the half-maximal inhibitory concentration (IC50) is 640 ± 20 nM. The “Downregulation of PD-L1 expression (Western blot)” value in experiment [1] is listed as “not related to the downregulation of PD-L1 expression; also recorded: unrelated to the downregulation of PD-L1 expression”.
